Source: ChEMBL document CHEMBL1201862, “PubChem BioAssay data set” (2004)
Active and inactive are the calls of the source.

How the values were obtained:
NS3 = NS3 (Hepatitis C virus, UniProt A3EZJ3); assay: PubChem AID 2173; parameters: species or system Hepacivirus hominis
[1] = growth suppression of PTEN-null colon cells, dose response, cell-based, HCT116 PTEN knockout (AID 1047); format: functional;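 further: HCT116 colon tumor cells with PTEN knocked out; cells exposed to compound for 60 hours before readout; potency for loss of cell viability measured by luminescence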
[2] = biological target: Dual specificity tyrosine-phosphorylation-regulated kinase 1A (Rattus norvegicus, UniProt Q63470); format: biochemical, Homo sapiens
[3] = cytotoxicity in KRAS-transformed pancreatic duct cells, primary screen, cell-based, fluorescence, HTS (AID 431); format: functional; details: Homo sapiens;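 further: cell line used: HPDE-C7K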
[4] = biological target: T1, DNA repair protein RAD52 homolog (Homo sapiens, UniProt P43351); format: functional, biochemical
T1 sequence (P43351 whole entry): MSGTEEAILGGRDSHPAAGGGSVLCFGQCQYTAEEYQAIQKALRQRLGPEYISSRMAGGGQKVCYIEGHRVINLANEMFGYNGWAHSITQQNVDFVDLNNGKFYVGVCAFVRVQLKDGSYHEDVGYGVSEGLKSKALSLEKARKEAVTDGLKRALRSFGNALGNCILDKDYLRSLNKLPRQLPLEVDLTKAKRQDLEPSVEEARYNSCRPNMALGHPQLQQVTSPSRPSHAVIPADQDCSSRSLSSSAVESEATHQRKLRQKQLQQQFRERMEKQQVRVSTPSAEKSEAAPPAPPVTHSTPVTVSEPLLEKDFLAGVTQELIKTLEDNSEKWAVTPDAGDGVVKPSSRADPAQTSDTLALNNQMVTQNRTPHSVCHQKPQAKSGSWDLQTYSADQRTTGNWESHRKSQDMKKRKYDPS

[5] = HEp-2 cell cytotoxicity, dose response, cytotoxicity control for RSV inhibitor project, HTS (AID 2410); format: functional; details: human respiratory syncytial virus
[6] = growth suppression of beta-catenin-knockout colon cells, dose response, cell-based, HCT116, human colon tumor (AID 1045); format: functional;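 further: HCT116 colon tumor cells with beta catenin knocked out; cells exposed to compound for 60 hours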
[7] = cytotoxicity in HPDE-C7 cells, cell-based, fluorescence, HTS (AID 430); format: functional; details: Homo sapiens
Estrogen receptor = biological target: T2, Estrogen receptor (Homo sapiens, UniProt P03372);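 further: potency for inhibiting coactivator peptide recruitment to the receptor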
T2 sequence (P03372 whole entry): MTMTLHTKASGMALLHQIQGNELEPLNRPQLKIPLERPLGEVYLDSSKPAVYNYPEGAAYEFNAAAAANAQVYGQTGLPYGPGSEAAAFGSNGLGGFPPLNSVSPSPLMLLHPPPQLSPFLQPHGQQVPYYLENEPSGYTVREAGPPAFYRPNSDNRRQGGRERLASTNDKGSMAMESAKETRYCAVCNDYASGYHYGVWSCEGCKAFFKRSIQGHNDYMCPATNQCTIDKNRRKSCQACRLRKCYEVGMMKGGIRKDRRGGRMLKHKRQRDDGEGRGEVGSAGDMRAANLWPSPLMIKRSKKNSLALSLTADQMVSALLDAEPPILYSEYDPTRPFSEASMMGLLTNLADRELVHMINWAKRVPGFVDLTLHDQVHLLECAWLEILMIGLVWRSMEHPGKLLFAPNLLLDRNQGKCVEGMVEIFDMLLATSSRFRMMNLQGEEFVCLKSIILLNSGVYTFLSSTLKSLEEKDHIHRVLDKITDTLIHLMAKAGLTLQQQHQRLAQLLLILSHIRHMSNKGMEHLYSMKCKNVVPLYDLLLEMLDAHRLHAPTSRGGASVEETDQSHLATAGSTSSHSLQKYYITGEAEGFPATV

[8] = biological target: T3, Tyrosine-protein phosphatase non-receptor type 7 (Homo sapiens, UniProt P35236); assay: inhibitors of human HePTP phosphatase, […], biochemical, absorbance, leukemia target (AID 521); format: functional
T3 sequence (P35236 whole entry): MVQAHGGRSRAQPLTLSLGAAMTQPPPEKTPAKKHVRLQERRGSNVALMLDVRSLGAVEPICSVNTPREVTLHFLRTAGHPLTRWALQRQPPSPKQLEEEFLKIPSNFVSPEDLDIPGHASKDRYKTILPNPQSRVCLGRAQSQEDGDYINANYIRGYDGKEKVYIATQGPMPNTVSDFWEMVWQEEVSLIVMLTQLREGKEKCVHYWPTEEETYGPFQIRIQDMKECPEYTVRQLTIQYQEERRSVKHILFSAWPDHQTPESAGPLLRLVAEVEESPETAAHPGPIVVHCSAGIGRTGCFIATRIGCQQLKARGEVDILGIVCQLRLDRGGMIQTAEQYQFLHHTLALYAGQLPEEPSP

[9] = Luminescence Cell-Based Dose Response HTS to Identify Activators of Luciferase Translation or Activity in H4 […] Cells. [Related pubchem assays: 1829 (Project Summary), 1814 (Primary HTS)]; format: functional
H4 = assay: Luminescence Cell-Based Dose Response HTS to Identify Activators of 5'UTR Stem-Loop Driven Prion Protein mRNA Translation in H4 Neuroglioblastoma Cells. [Related pubchem assays: 1829 (Project Summary), 1814 (Primary HTS)]; format: functional; details: Homo sapiens
[10] = Luminescence Cell-Based Dose Confirmation to Identify Activators of 5'UTR Stem-Loop Driven Alpha-Synuclein mRNA Translation in H4 Neuroglioblastoma Cells. [Related pubchem assays: 1829 (Project Summary), 1814 (Primary HTS)]; format: functional
[11] = Luminescence Cell-Based Dose Response to Identify Activators of Luciferase Translation or Activity in H4-C Neuroglioblastoma Cells. [Related pubchem assays: 1829 (Project Summary), 1814 (Primary HTS)]; format: functional
[12] = Luminescence Cell-Based Dose Response to Identify Activators of 5'UTR Stem-Loop Driven Prion Protein mRNA Translation in H4-C Neuroglioblastoma Cells. [Related pubchem assays: 1829 (Project Summary), 1814 (Primary HTS)]; format: functional
[13] = Luminescence Cell-Based Dose Retest to Confirm Inhibitors of Cancer Stem Cells. [Related pubchem assays (depositor defined):AID2717, AID2721]; format: functional; details: Homo sapiens
[14] = biological target: 72 kDa type IV collagenase (Homo sapiens, UniProt P08253); assay: Dose Response validation of uHTS RPN11 inhibitor hits using a MMP-2 Fluorescence assay.; format: functional
Sequence of 72 kDa type IV collagenase (P08253 whole entry): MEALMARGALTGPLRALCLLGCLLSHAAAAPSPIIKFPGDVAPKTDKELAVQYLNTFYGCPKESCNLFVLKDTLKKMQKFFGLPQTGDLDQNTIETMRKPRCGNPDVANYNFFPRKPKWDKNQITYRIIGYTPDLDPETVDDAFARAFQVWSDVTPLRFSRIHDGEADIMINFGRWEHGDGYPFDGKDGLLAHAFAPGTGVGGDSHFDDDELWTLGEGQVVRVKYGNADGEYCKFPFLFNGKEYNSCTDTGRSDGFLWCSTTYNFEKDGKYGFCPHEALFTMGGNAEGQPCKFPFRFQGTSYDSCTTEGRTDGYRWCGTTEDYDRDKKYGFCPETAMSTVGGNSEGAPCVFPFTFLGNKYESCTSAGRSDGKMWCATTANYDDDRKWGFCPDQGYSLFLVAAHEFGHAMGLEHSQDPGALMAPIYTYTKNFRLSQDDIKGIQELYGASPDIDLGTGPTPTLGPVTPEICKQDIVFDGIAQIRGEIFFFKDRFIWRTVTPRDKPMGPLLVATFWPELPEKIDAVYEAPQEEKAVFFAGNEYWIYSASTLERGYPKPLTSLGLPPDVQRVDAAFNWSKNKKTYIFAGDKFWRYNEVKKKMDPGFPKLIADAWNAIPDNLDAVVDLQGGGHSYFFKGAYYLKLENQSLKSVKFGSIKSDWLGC

[15] = biological target: T4, Zinc finger protein mex-5 (Caenorhabditis elegans, UniProt Q9XUB2); assay: MEX-5/TCR-2 RNA interaction inhibitors, dose response, biochemical, C. elegans, fluorescence polarization (AID 1960)
T4 sequence (Q9XUB2 whole entry): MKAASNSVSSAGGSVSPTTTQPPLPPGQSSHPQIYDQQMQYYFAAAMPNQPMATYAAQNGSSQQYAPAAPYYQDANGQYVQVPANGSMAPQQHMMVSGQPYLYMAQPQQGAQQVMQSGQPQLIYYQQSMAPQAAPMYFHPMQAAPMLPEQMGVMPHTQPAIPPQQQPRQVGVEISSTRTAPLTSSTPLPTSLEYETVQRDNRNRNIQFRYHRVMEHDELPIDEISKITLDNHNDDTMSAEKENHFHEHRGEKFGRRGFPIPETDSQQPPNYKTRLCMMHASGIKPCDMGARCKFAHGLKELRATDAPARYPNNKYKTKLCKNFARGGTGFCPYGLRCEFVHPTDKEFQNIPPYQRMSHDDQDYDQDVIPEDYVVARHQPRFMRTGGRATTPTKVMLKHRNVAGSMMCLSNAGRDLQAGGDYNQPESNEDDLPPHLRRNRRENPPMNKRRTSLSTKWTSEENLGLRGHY

Prothrombin = Prothrombin (Bos taurus, UniProt P00735); assay: thrombin inhibition, dose response, biochemical, fluorescence polarization, uHTS hits (AID 602369); format: functional
[16] = biological target: T5, RNA-binding protein pos-1 (Caenorhabditis elegans, UniProt G5EF15); assay: inhibitors of POS-1/mex-3 RNA binding, dose response, biochemical, fluorescence polarization (AID 1964);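 further: purified POS-1 fused to maltose binding protein made in E. coli; potency of compounds blocking POS-1 binding to fluorescent RNA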
T5 sequence (G5EF15 whole entry): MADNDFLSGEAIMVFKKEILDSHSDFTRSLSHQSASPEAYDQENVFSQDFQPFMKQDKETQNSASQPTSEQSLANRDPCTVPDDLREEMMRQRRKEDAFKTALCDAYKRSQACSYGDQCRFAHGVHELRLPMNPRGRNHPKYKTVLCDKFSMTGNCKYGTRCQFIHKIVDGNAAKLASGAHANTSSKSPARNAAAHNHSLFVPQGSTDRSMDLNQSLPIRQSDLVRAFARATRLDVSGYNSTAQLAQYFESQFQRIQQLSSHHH

[17] = cytotoxicity in HMLE control line with eGFP shRNA, dose response, counter-screen for HMLE_sh_ECad selective toxicity project, cell-based, HMLE_sh_eGFP, luminescence (AID 463074); format: functional, Homo sapiens;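 further: HMLE human mammary epithelial cells expressing control shRNA against eGFP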
[18] = THP-1 cell cytotoxicity, dose response, cytotoxicity control for Vif-APOBEC3G degradation inhibitor project, THP-1 cells (AID 1117359); format: functional; details: Human immunodeficiency virus 1, THP-1
[19] = inhibitors of Vif binding to APOBEC3G peptide, primary screen, biochemical, TR-FRET, GST-Vif 1-94, biotin-A3G peptide, dose response retest (AID 1117319); format: functional;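 further: TR-FRET signal of purified GST-Vif binding a biotinylated A3G peptide; inhibitors lower the FRET signal by blocking Vif and A3G binding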
[20] = biological target: 26S proteasome non-ATPase regulatory subunit 14 (Homo sapiens, UniProt O00487); assay: inhibition of proteasome subunit RPN11 – biochemical, fluorescence polarization, uHTS hits, confirmation (AID 602368); format: functional
Sequence of 26S proteasome non-ATPase regulatory subunit 14 (O00487 whole entry): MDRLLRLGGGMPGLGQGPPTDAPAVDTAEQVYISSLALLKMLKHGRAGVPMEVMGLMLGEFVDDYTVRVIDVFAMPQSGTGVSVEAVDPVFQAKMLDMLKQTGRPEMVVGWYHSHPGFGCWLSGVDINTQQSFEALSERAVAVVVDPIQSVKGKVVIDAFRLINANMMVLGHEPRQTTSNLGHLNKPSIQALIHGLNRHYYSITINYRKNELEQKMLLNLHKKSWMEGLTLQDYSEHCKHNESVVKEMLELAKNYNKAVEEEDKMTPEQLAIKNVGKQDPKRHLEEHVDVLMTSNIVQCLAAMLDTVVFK

Sequence of NS3 (A3EZJ3 whole entry): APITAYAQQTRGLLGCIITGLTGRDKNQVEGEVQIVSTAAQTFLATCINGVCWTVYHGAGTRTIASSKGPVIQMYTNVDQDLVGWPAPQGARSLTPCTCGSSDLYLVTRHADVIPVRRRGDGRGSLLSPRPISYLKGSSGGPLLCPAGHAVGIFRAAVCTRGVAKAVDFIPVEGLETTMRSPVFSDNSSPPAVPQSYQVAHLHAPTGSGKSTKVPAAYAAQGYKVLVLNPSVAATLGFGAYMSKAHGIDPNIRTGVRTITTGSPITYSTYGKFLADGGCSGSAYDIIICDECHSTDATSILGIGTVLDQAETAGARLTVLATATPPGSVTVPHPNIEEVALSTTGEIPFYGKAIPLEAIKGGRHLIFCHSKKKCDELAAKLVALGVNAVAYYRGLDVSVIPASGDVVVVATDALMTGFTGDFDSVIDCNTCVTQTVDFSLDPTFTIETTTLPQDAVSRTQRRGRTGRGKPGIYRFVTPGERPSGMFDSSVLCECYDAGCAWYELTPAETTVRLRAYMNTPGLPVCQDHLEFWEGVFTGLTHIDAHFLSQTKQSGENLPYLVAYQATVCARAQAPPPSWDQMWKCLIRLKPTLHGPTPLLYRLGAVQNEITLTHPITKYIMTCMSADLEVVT

For O=C(C1=C(O)C(=O)N(Cc2ccco2)C1c1cccc(Cl)c1)c1ccc2c(c1)OCCO2 (stereo not given), which IC50 (NS3) is on record?
Its IC50 is 4.61 µM (active).

With CN1CCN(c2cc3c(c4c2[nH]c2ccccc24)C(=O)CC(C)(C)C3)CC1 as the molecule, how does the EC50 [1] read?
The EC50 was 11.4 µM (active).

What about the AC50 [2] of the same molecule?
Its AC50 is 7.77 µM (active).

And the EC50 [3]?
Its EC50 is 12.9 µM (active).

What about the AC50 [4] of the same molecule?
The AC50 was 9.48 µM (active).

What about the CC50 [5] of the same molecule?
The CC50 was 15.6 µM (active).

And the EC50 [6]?
The EC50 was 10.4 µM (active).

And the EC50 [7]?
The EC50 was 13.2 µM (active).

With O=C(COc1ccccc1)Nc1ccc(Cl)c(-c2nc3ncccc3o2)c1 as the molecule, how does the IC50 (Estrogen receptor) read?
Its IC50 is > 50 µM (not active).

For CC(C)(C)OC(=O)c1c(N)n(Cc2ccco2)c2nc3ccccc3nc12, which IC50 [8] is on record?
The IC50 was > 100 µM (not active).

For CC(C)Cc1ccc(/C=C/C(=O)N2CCOCC2)cc1, which EC50 [9] is on record?
The EC50 was < 0.1 µM (inconclusive).

What about the EC50 (H4) of the same molecule?
The EC50 was 0.843 µM (active).

And the EC50 [10]?
Its EC50 is 0.25 µM (active).

What about the EC50 [11] of the same molecule?
The EC50 was 0.374 µM (active).

And the EC50 [12]?
The EC50 was 0.682 µM (active).

What does the source list for CCOc1ccccc1N1C(=O)NC(=O)/C(=C\Nc2ccc(N(CC)CC)cc2)C1=O?
AC50 [13]: 40.9 µM (active); IC50 [14]: > 100 µM (inactive); EC50 [15]: > 300 µM (inconclusive); IC50 (Prothrombin): 13.4 µM (active); EC50 [16]: > 300 µM (not active); AC50 [17]: 51 µM (active); CC50 [18]: 26 µM (active); IC50 [19]: > 57.5 µM (active); IC50 [20]: 18.3 µM (active)

Which EC50 [9] does the source give for COc1cc(NC(=O)c2cc3nc(C)cc(C)n3n2)c(OC)cc1Cl here?
The EC50 was 0.278 µM (active).

What about the EC50 (H4) of the same molecule?
Its EC50 is < 0.1 µM (active).

What about the EC50 [10] of the same molecule?
Its EC50 is 0.392 µM (active).

And the EC50 [11]?
The EC50 was 0.323 µM (active).

And the EC50 [12]?
Its EC50 is 0.389 µM (active).

Which IC50 (Estrogen receptor) does the source give for COc1cc(NC(=O)CSc2nc3ccccc3c(=O)n2C)ccc1NC(=O)c1ccco1 here?
The IC50 was 32.5 µM (not active).
